The source of these data is patent publication US20080161348A1, “PTX3-GENE EXPRESSION INHIBITOR” (KOWA CO., LTD., priority 2002, published 2008).

In experiment [1] the test system is PTX3 gene. Description: PTX3 gene expression analysis by GeneChip array in HUVEC. The experiment is classed as cell-based, human. The following applies: 8 hours after addition, control 1113.0. As for the experimental part: (§1) Two days after inoculation of normal human umbilical vein endothelial cells (HUVEC) or human coronary artery smooth muscle cells (HCASMC) at 3×10^5 cells/10 cm dish, pitavastatin calcium or atorvastatin calcium was added to 1.1 μmol/L and 6.6 μmol/L, respectively. Dimethyl sulfoxide, a solvent for both of the active ingredients, was added to a control (final concentration: 0.0066 v/v %). Eight hours after the addition, total RNA was extracted with “ISOGEN” (trade mark, product of NIPPON GENE CO., LTD.). The following procedures was conducted in accordance with the procedures manual of Affymetrix. Inc. Described specifically, mRNA was isolated from the above-obtained total RNA, and based on the mRNA, cDNA was synthesized. Further, biotin-labeled cRNA was synthesized by in vitro transcription. Subsequent to purification, the biotin-labeled cRNA was subjected to fragmentation by heat treatment to prepare fragmented cRNA for use in a gene expression analysis.
(§2) Gene expression analysis method: The fragmented CRNA was poured into “Hugene Human FL Array” (trade name, product of Affymetrix, Inc.), and hybridization was conducted at 45° C. for 16 hours. […] The information was analyzed by “GENECHIP SOFTWARE” (trade name, product of Affymetrix, Inc.) to compare expression levels.

The test system of experiment [2] is PTX3 gene. Description: PTX3 gene expression analysis by GeneChip array in HCASMC. The format is cell-based, human. The following applies: 8 hours after addition, control 1028.3. How it is done:
as §1, §2

For experiment [3], the system named is PTX3 gene. Briefly: PTX3 gene expression by RT-PCR and agarose gel electrophoresis in HUVEC. The following applies: both 8 hours later and 24 hours later. The format is cell-based, human. As for the experimental part:
(§3) Two days after inoculation of HUVEC at 3×10^5 cells/10 cm dish, pitavastatin calcium or atorvastatin calcium was added to 1.1 μmol/L and 6.6 μmol/L, respectively. To ascertain possible concentration dependency of PTX3 gene expression suppressing effect of pitavastatin, pitavastatin calcium was also added to 1 μmol/L and 10 μmol/L upon elapsed time of 2 days after inoculation of HUCEC or HCASMC at 3×10^5 cells/10 cm dish. To controls under the respective conditions, dimethyl sulfoxide, a solvent for both of the active ingredients, was added (final concentration: 0.0066 v/v %) Eight or 24 hours after the addition, total RNA was extracted with “ISOGEN” (trade mark, product of NIPPON GENE CO., LTD.). The total RNA was subjected to RT-PCR in a manner known per se in the art, and amplified DNA fragments were subjected to agarose gel electrophoresis to compare expression levels. • Reaction conditions and the like for PT-PCR:
(§4) PT reaction: Conducted using “RNA PCR Core Kit” (trade name, product of Roche Molecular Systems, Inc.).
PCR: Using “Expanded™ High Fidelity PCR System” (trade name, manufactured of Boehringer Mannheim AG), thermal cycling was conducted through 25 cycles according to the following schemes: 95° C. for 1 minute—57° C. for 1 minute—72° C. for 1 minute. Incidentally, as PCR primers, the followings were used in sets: SEQ ID No:1 (Forward) and SEQ ID No: 2 (Reverse) in the case of PTX3; base SEQ ID No:3 (Forward) and SEQ ID No: 4 (Reverse) in the case of GAPDH.

Experiment [4] deals with PTX3 gene. Description: PTX3 gene expression by RT-PCR and agarose gel electrophoresis in HCASMC. The experiment is classed as cell-based, human. The following applies: 1 μmol/L and 10 μmol/L, both 8 hours later and 24 hours later. As for the experimental part: as §3, §4
PCR: Using “Expanded™ High Fidelity PCR System” (trade name, manufactured of Boehringer Mannheim AG), thermal cycling was conducted through 25 cycles according to the following schemes: 95° C. for 1 minute—57° C. for 1 minute—72° C. for 1 minute. […]

Experiment [5] has as its system PTX3 gene. The following applies: constant expression in synovial cells; Clin. Exp. Immunol., 119(1), 196-202 (2000); cited from earlier work.

As to `CC(C)c1c(C(=O)Nc2ccccc2)c(-c2ccccc2)c(-c2ccc(F)cc2)n1CC[C@@H](O)C[C@@H](O)CC(=O)O` [atorvastatin calcium, (3R,5R)-7-[2-(4-fluorophenyl)-5-isopropyl-3-phenyl-4-phenylcarbamonyl-1H-pyrrol-1-yl]-3,5-dihydroxyheptanoic acid], the “expression of PTX3 gene in HUVEC” value in experiment [1] (6.6 μmol/L) stood at 39.2. In addition, the “expression of PTX3 gene in HCASMC” value in experiment [2] (6.6 μmol/L) is on record as 432.1. The “expression of PTX3 gene in HUVEC compared with the control (RT-PCR)” value in experiment [3] (6.6 μmol/L) was “suppressed”.

In the case of `O=C(O)C[C@H](O)C[C@H](O)/C=C/c1c(C2CC2)nc2ccccc2c1-c1ccc(F)cc1` [pitavastatin calcium, (3R,5S, 6 E)-7-[2-cyclopropyl-4-(4-fluorophenyl)-3-quinolyl]-3,5-dihydroxy-6-heptenoic acid], the “expression of PTX3 gene in HUVEC” value in experiment [1] (1.1 μmol/L) is listed as 32.7. The “expression of PTX3 gene in HCASMC” value in experiment [2] (1.1 μmol/L) was found to be 452.5. In addition, the “concentration dependency of PTX3 gene expression suppression in HUVEC (RT-PCR)” value in experiment [3] (1 μmol/L and 10 μmol/L) is on record as “concentration-dependently suppressed”. For the same molecule, the “expression of PTX3 gene in HUVEC compared with the control (RT-PCR)” value in experiment [3] (1.1 μmol/L) is “suppressed”. Further, in experiment [4], the “concentration dependency of PTX3 gene expression suppression in HCASMC (RT-PCR)” value is recorded as “concentration-dependently suppressed”.

Regarding “IFN-γ: inteferon-γ (IFN-γ), known from literature to suppress PTX3 gene expression”, the “expression of PTX3 gene in synovial cells of a rheumatoid arthritis patient” value in experiment [5] is “suppressed”.

Take TGF-β: the “expression of PTX3 gene in synovial cells of a rheumatoid arthritis patient” value in experiment [5] was “suppressed”.
